Test results reported in US6896895B2, “Carotenoid esters, carotenoid-enriched feeds, and methods of pigmenting foods and foodstuffs” (DSM IP Assets B.V., priority 2000, dated 2005).
Marks after values point to notes of the source that are not given here.

Experiments:
[1] = Carotenoid ester content in plasma, back skin and abdominal fat of broilers (HPLC); format: in vivo, broiler chickens (Ross 308, Ross 508); settings: average over doses, Table 4
Procedure: (§1) Pigmentation efficacy was assessed in egg yolk, in the back skin of the broiler carcass, and in broiler shanks by reflectance colorimetry accompanied by visual scoring (Roche Colour Fan). The deposition of the ethyl-β-apo-8′-carotenoate (control) and the other carotenoid esters was determined in egg yolk and in the broiler back skin. In addition, the carotenoid levels in plasma and abdominal fat were measured.
(§2) The trials were carried out using chickens of the type Ross 308 (trials MC-24/98 and MC-02/99) and Ross 508 (trials MC-11/99, MC-16/99, MC-24/99, and MC-03/00) (Couvir de la Bohardière, F-49290 Saint Laurent de la Plaine). One-day old broiler chickens, separated by sex, were divided by weight into experimental groups of ten animals each and reared in floor pens littered with wood shavings. The chickens were fed a low carotenoid basal grower diet until day 22 (trials MC-24/98, MC-02/99, and MC-11/99) or until day 15 (trials MC-16/99, MC-24/99, and MC-03/00). The low carotenoid basal grower diet contained less than 2 mg total xanthophylls per kg of feed, and its composition is described in Table 2. For the subsequent experimental period of three weeks, the birds received the basal diet supplemented with an appropriate pigment. The feed was given in the form of crumbled pellets during the first week and as pellets thereafter. The animals had unrestricted access to feed and water. A given treatment involved one group of male and one group of female chickens. Each group of chickens was weighed at day 22 (trials MC-24/98, MC-02/99, and MC-11/99) or day 15 (trials MC-16/99, MC-24/99, and MC-03/00) and on day 43. On day 42, five chickens per group were selected at random, labelled, and blood samples were taken from the jugular vein. At the end of the experiment (day 44) the animals were slaughtered in a commercial slaughterhouse (Freyburger, Dannemarie, France). The following day, the color of the skin (hind back of carcasses) and the shanks of the labelled chicken were measured by reflectance colorimetry (Minolta CR 200 apparatus, CIE-Lab system). Samples of the dorsal skin and abdominal fat were obtained, pooled for each experimental group, and the carotenoid concentration was determined. The concentration of carotenoids in feed, plasma, skin, and abdominal fat was determined by standard procedures as described after Tables 1 and 2.
The content of the various carotenoid esters in feed was determined according to the method of Schierle, et al. (J. Schierle , N. Faccin, V. Riegert, Analytical Methods for Vitamins and Carotenoids in Feed, Revised supplement: Determination of Stabilized Apocarotenoic Ester and Canthaxanthin in Premixes and Feeds, Roche publication no. 50771 (1995), publicly available from. F. Hoffmann-La Roche Ltd., CH-4070 Basel). This method was modified in that the mobile phase of the normal-phase HPLC contained 0.5% instead of 7% acetone in n-hexane, improving the separation of the E/Z-isomers of the carotenoid esters. Peaks were related to all-E- and Z-isomers of the various carotenoid esters by chromatography of heat-isomerized solutions of the respective reference substances in n-hexane. The HPLC system was calibrated with the all-E-isomer of ethyl β-apo-8′-carotenoate. The response factor of the various derivatives was deduced from that of ethyl β-apo-8′-carotenoate taking into account the respective molecular weight. The content of the Z-isomer fractions was calculated based on the response of the all-E-isomer and using a correction factor of 1.4 to account for the lower specific absorbance of the Z-isomers.
(§3) The HPLC-system for in-feed analysis was also used to quantify the carotenoid esters in egg yolk, broiler tissues, and broiler plasma, but the extraction procedure was different for the various matrices.
For plasma extraction, 1.0 g of the well-mixed plasma sample was introduced into a 10 ml test tube with 1.0 ml of demineralized water and 4.0 ml of ethanol, and the contents mixed on a Vortex shaker. […]

egg yolk = experiment: Egg yolk colour: reflectance colorimetry and Roche Yolk Colour Fan; format: in vivo, laying hens (ISA Brown); settings: egg yolk, laying hens
Procedure: as §1
The trials were carried out following the standard experimental design used for egg yolk pigmentation trials at the Roche Research Center for Animal Nutrition (CRNA, F-68305 Village-Neuf, France). Each year in February the pigmentation trials are started with a new flock of layers. At the beginning of the trials the age of the laying hens (192 birds, type ‘ISA Brown’) were as follows:
(§4) Preceding the trials the hens were fed a low carotenoid basal diet (produced at the CRNA) without carotenoid supplementation for at least 28 days. During the trials, the control group received the low carotenoid basal diet containing less than 2 mg total xanthophylls per kg of feed. The other animals were fed this diet supplemented with the appropriate pigments for three weeks. The diet was given to the animals ad libitum in mash form. The hens had free access to tap water. Beside the unsupplemented control treatment, treatments were carried out involving the provision of supplemented feed, the results of these treatments being presented in Tables 7-9.
Egg yolk color was assessed as described by Steinberg, et al. (Arch. Geflügelk 64 (4), 180-187 (2000)). The yolks were manually separated from the whites of the eggs. The isolated yolks of three to six eggs were combined, weighed, and stirred with a glass rod until the color appeared homogeneous. The color hue was visually scored using the Roche Yolk Colour Fan (RYCF, version 1993). An aliquot of the pooled egg yolks was transferred into a glass cuvette yielding an approximately 2 cm thick layer. The color was then measured by means of a Dr. Lange Xeno Color LS 100 spectro-colorimeter with diffuse D65-illumination and a 8° viewing angle.
(§5) The color data were expressed as CIE L*a*b*-values including h*(hue) and C* (chroma). The values given in the tables per treatment and trial represent averages of color measurements of four egg yolk pools, ten broiler back skins, or ten broiler shanks (5 males and 5 females).

[2] = tested on: skin and shanks of broilers; experiment: Reflectance colorimetry and visual classification of skin and shanks of broilers; format: in vivo, broiler chickens (Ross 308, Ross 508); parameters: key to Shanks Visual Classification / Skin Visual Classification: −; (+); +; ++ = good color; o = orange; settings: dry carcasses, average over doses, Table 6
Procedure: as §1, §2
The color of broiler skin and shanks was measured using a tristimulus Minolta CR-300 Chromameter with diffuse D65-illumination and a 0° viewing angle. The color of the skin was read at three different points on the back of the dry broiler carcasses and average values of the triple measurements were recorded. The color of shanks was measured using single measurements at the ball between the toes.
as §5

[3] = Carotenoid ester content and deposition rate in egg yolk of laying hens (HPLC); format: in vivo, laying hens (ISA Brown); settings: egg yolk; for Deposition Rate % of Controls: Table 10
Procedure: as §1
Each year in February the pigmentation trials are started with a new flock of layers.
as §4, with “water.” for “water. Beside the unsupplemented control treatment, treatments were carried out involving the provision of supplemented feed, the results of these treatments being presented in Tables 7-9.”
Peaks were related to all-E- and Z-isomers of the various carotenoid esters by chromatography of heat-isomerized solutions of the respective reference substances in n-hexane. The HPLC system was calibrated with the all-E-isomer of ethyl β-apo-8′-carotenoate. The response factor of the various derivatives was deduced from that of ethyl β-apo-8′-carotenoate taking into account the respective molecular weight. The content of the Z-isomer fractions was calculated based on the response of the all-E-isomer and using a correction factor of 1.4 to account for the lower specific absorbance of the Z-isomers.
as §3
For the extraction of egg yolk, 10 g of pooled and homogenised yolk were mixed with 10 ml of demineralized water using a dispersion instrument (Polytron). 1.0 g of diluted egg yolk was introduced into a 10 ml test tube with 1.0 ml of demineralized water and 2.0 ml of ethanol, and the contents were mixed on a Vortex shaker. After addition of 4.0 ml of n-hexane, the mixture was further treated as described for plasma.

[4] = trial H-18/99, 5.0 mg/kg feed, Table 8
[5] = trial H-18/99, 5.0 mg/kg feed, Table 10
[6] = trial H-12/99, 2, 4, 8 mg/kg feed, Table 8
[7] = trial H-12/99, 2, 4, 8 mg/kg feed, Table 10
[8] = trials H-18, 22/99, 1, 2, 4, 5, 8 mg/kg feed, Table 8
[9] = trials H-18, 22/99, 1, 2, 4, 5, 8 mg/kg feed, Table 10
[10] = control, n = 16, 1.0-8.0 mg/kg feed

Structure (SMILES) | Analytical Content as Equivalent of Ethyl β-apo-8′-carotenoate in % of control Fat [1] | Analytical Content as Equivalent of Ethyl β-apo-8′-carotenoate in % of control Plasma [1] | Analytical Content as Equivalent of Ethyl β-apo-8′-carotenoate in % of control Skin [1] | Deposition Rate Target Values % of Controls [3, 4] | Ethyl β-apo-8′-carotenoate Equivalents % of Controls [3, 4] | Deposition Rate % of Controls ([3]; trial H-18/99, 5.0 mg/kg feed) | Color Fan Value % of Controls (egg yolk; [4]) | Chroma C*ab % of Controls (egg yolk; [5]) | Color Fan Value % of Controls (egg yolk; [5]) | Color Hue h*ab % of Controls (egg yolk; [5]) | Shanks Chroma C*ab % of Controls [2] | Shanks Color Hue h*ab % of Controls [2] | Shanks Visual Classification [2] | Skin Chroma C*ab % of Controls [2] | Skin Color Hue h*ab % of Controls [2] | Skin Visual Classification [2] | other results
CC(C=CC=C(C)C=CC1=C(C)CCCC1(C)C)=CC=CC=C(C)C=CC=C(C)C(=O)OCC(C)C [(4), isobutyl beta-apo-8′-carotenoate] | – | 58% | – | 83% | 74% | 83% | 116% | 104% | 116% | 101% | 72% | 105% | (+) | 84% | 98% | (+) | –
CCC(C)OC(=O)C(C)=CC=CC(C)=CC=CC=C(C)C=CC=C(C)C=CC1=C(C)CCCC1(C)C (stereo not drawn) [(5), sec. butyl beta-apo-8′-carotenoate] | 53% | 94% | 74% | – | – | – | – | – | – | – | 100% | 101% | + | 100% | 101% | + | Color Fan Value % of Controls (egg yolk; [8]): 88%; Chroma C*ab % of Controls (egg yolk; [9]): 103%; Color Hue h*ab % of Controls (egg yolk; [9]): 102%; Color Fan Value % of Controls (egg yolk; trials H-18, 22/99, 1, 2, 4, 5, 8 mg/kg feed, comparison within same trials, Table 10): 93^1) %; Deposition Rate Target Values % of Controls [3, 8]: 97%; Ethyl β-apo-8′-carotenoate Equivalents % of Controls [3, 8]: 90%; Deposition Rate % of Controls ([3]; trials H-18, 22/99, 1, 2, 4, 5, 8 mg/kg feed, comparison within same trials): 84^1) %
CCOC(=O)/C(C)=C/C=C/C(C)=C/C=C/C=C(C)/C=C/C=C(C)/C=C/C1=C(C)CCCC1(C)C [Ethyl β-apo-8′-carotenoate, ethyl beta-apo-8′-carotenoate, reference compound] | – | – | – | – | – | – | – | – | – | – | – | – | – | – | – | – | Color Fan Value % of Controls (egg yolk; [10]): 100%; Deposition Rate Target Values % of Controls [3, 10]: 100%; Ethyl β-apo-8′-carotenoate Equivalents % of Controls [3, 10]: 100%

Continued, in another order:

Analytical Content as Equivalent of Ethyl β-apo-8′-carotenoate in % of control Fat [1] | Analytical Content as Equivalent of Ethyl β-apo-8′-carotenoate in % of control Plasma [1] | Analytical Content as Equivalent of Ethyl β-apo-8′-carotenoate in % of control Skin [1] | Deposition Rate Target Values % of Controls [3, 4] | Ethyl β-apo-8′-carotenoate Equivalents % of Controls [3, 4] | Deposition Rate % of Controls ([3]; trial H-18/99, 5.0 mg/kg feed) | Structure (SMILES) | Color Fan Value % of Controls (egg yolk; [4]) | Chroma C*ab % of Controls (egg yolk; [5]) | Color Fan Value % of Controls (egg yolk; [5]) | Color Hue h*ab % of Controls (egg yolk; [5]) | Shanks Chroma C*ab % of Controls [2] | Shanks Color Hue h*ab % of Controls [2] | Shanks Visual Classification [2] | Skin Chroma C*ab % of Controls [2] | Skin Color Hue h*ab % of Controls [2] | Skin Visual Classification [2] | other results
85% | 88% | 87% | 99% | 95% | 99% | COC(=O)C(C)=CC=CC(C)=CC=CC=C(C)C=CC=C(C)C=CC1=C(C)CCCC1(C)C [(1), methyl beta-apo-8′-carotenoate] | 130% | 104% | 130% | 99% | 97% | 101% | (+) | 97% | 100% | (+) | –
39% | 68% | 45% | – | – | – | CCCOC(=O)C(C)=CC=CC(C)=CC=CC=C(C)C=CC=C(C)C=CC1=C(C)CCCC1(C)C [(2), n-propyl beta-apo-8′-carotenoate] | – | – | – | – | 108% | 99% | (+) | 93% | 97% | (+) | Color Fan Value % of Controls (egg yolk; [6]): 110%; Chroma C*ab % of Controls (egg yolk; [7]): 95%; Color Fan Value % of Controls (egg yolk; [7]): 110%; Color Hue h*ab % of Controls (egg yolk; [7]): 101%; Deposition Rate Target Values % of Controls [3, 6]: 77%; Ethyl β-apo-8′-carotenoate Equivalents % of Controls [3, 6]: 73%; Deposition Rate % of Controls ([3]; trial H-12/99, 2, 4, 8 mg/kg feed): 77%
